Laboratory results reported in patent publication US20240425464A1, “Substituted Monohydrazides as Potent Antifungal Agents” (University of Kentucky Research Foundation, priority 2023, published 2024).
In brackets after ≈: the same amount, converted by molar mass. Where two headings read alike, the source gives them in different places.

Columns and labels:
[1] = system: C. albicans ATCC 10231 (strain A); assay: Time-kill assay; assay type: cell-based, Candida albicans; settings: at 4×MIC; CFU at 0-24 h
Method: Compounds were then added to the fungal cells. […] Experiments were performed in duplicate.

[2] = system: C. albicans ATCC 10231 (strain A) biofilm formation; assay: Prevention of biofilm formation assay; assay type: cell-based, Candida albicans
Method: Biofilm prevention assays were set up identically to the ordinary MIC experiment, where compounds were diluted, and the fungi added. After overnight growth, the plates were washed as in the biofilm disruption assay and stained and measured in the same fashion.
A large amount of fungal cells were exposed to the monohydrazides at time 0 h to evaluate the effect of these compounds in the prevention of Candida biofilm formation (FIG. 5B). […] Although some of these monohydrazides were able to prevent biofilm formation, none of these compounds had any effect in terms of the disruption of already pre-formed biofilms (FIG. 5A).

[3] = system: ten other fungal strains (AR Bank #391-400); assay: MIC determination, summary over ten additional fungal strains; assay type: cell-based; settings: read-out: MIC range
Method: (§1) The antifungal agent amphotericin B (AmB) was purchased from VWR (Radnor PA, USA). AmB was dissolved in DMSO at a final concentration of 5 mg/mL and was stored at −20° C., protected from light. Candida albicans American Type Culture Collection (ATCC) 10231 (strain A), C. albicans ATCC 64124 (B), and C. albicans ATCC MYA-2876 (C) were obtained from Utah State University. C. albicans ATCC 90819 (D), C. albicans ATCC MYA-2310 (E), C. albicans ATCC MYA-1237 (F), C. albicans ATCC MYA-1003 (G), Candida glabrata ATCC 2001 (H), Candida krusei ATCC 6258 (I), Candida parapsilosis ATCC 22019 (J), Cryptococcus neoformans ATCC MYA-895 (M), Aspergillus terreus ATCC MYA-3633 (N), and Aspergillus flavus ATCC MYA-3631 (0) were obtained from the American Type Culture Collection (ATCC; Manassas, VA, USA). Aspergillus nidulans ATCC 38163 (P) was obtained from University of Kentucky. Clinically derived Aspergillus fumigatus NRRL 163 (Q), A. fumigatus NRRL 5109 (R), and A. fumigatus NRRL 6113 (S) were obtained from Northern Regional Research Laboratory (NRRL). Candida auris 384 (K), C. auris 390 (L), and fungal strains 381-400 (including 10 C. auris (AR Bank #381-390), 3 Candida duobushaemulonii (AR Bank #391, AR Bank #392, and AR Bank #394), 2 Candida haemulonii (AR Bank #393 and AR Bank #395), 1 Kodameae ohmeri (AR Bank #396), 1 C. krusei (AR Bank #397), 1 Candida lusitaniae (AR Bank #398), and 2 Saccharomyces cerevisiae strains (AR Bank #399 and AR Bank #400)) were part of a larger fungal library from the AR Bank maintained by the Centers for Disease Control and Prevention (CDC; Atlanta, GA, USA). Filamentous fungi and yeasts were cultivated at 35° C. in RPMI 1640 medium (with L-glutamine, without sodium bicarbonate, Sigma-Aldrich, St. Louis, MO) buffered to a pH of 7.0 with 0.165 M morpholinepropanesulfonic acid (MOPS) buffer (Sigma-Aldrich). For cytotoxicity assays, HepG2 and the mouse macrophage cell line J774A.1 were obtained from University of Kentucky. The human embryonic kidney cell line, HEK-293, was bought from the ATCC. Mammalian cells were grown in Dulbecco's Modified Eagle's Medium (DMEM) (from VWR) with 10% fetal bovine serum (FBS) (from VWR) and 1% Pen/Strep (from ATCC). Cell lines were cultured at 37° C. with 5% CO2 and passaged by trypsinization with 0.05% trypsin: 0.53 mM EDTA (from Sigma-Aldrich).
(§2) From the actively growing yeast culture, 100 µL were then transferred to 900 μL of RPMI 1640 medium and re-adjusted to achieve OD600 of 0.12 (˜1×10^6 CFU/mL). The cell suspension was further diluted to achieve 1:100 in RPMI 1640 medium.

[4] = system: Saccharomyces cerevisiae AR Bank #400; assay: MIC determination by in vitro antifungal assay; assay type: cell-based
Method: as §1, §2

**Q.** How did the “fungistatic or fungicidal behavior in time-kill assay” value [1] turn out when `O=C(NNc1cccc(Cl)c1)c1ccccn1` [Compound 2b] was run?
**A.** Its value is “fungistatic”.

**Q.** `O=C(NNc1ccc(F)cc1F)c1ccccn1` [Compound 2g] was tested. Which “prevention of biofilm formation” value [2] did it give?
**A.** Its value is “not capable of preventing”.

**Q.** What about the MIC [3] of the same compound?
**A.** The MIC was 0.06 to 7.8 µg/mL (≈ 0.241 to 31.3 µM).

**Q.** For `O=C(NNc1cccc(F)c1)c1ccccn1` [Compound 2a], which “concentration active in prevention of biofilm formation” value (“concentration active in prevention” for short) [2] is on record?
**A.** The value was 7.8 j·tg mL^−1.

**Q.** How did the “concentration active in prevention” value [2] turn out when `COc1cccc(NNC(=O)c2ccccn2)c1` [Compound 2c] was run?
**A.** Its value is 1.96 j·tg mL^−1.

**Q.** What about the MIC [4] of the same compound?
**A.** Its MIC is 7.8 μg/mL^−1.

**Q.** `O=C(NNc1cc(F)cc(F)c1)c1ccccn1` [Compound 2i] was tested. Which “prevention of biofilm formation” value [2] did it give?
**A.** Its value is “not capable of preventing”.

**Q.** And the MIC [3]?
**A.** Its MIC is 0.06 to 1.95 µg/mL (≈ 0.241 to 7.82 µM).

**Q.** Which MIC [4] does the source give for `O=C(NNc1ccc(Cl)cc1)c1cnccn1` [Compound 9e] here?
**A.** Its MIC is 3.9 μg/mL^−1.

**Q.** How did the MIC [3] turn out when `O=C(NNc1cccc(Cl)c1)c1cnccn1` [Compound 9b] was run?
**A.** Its MIC is 0.06 to 1.95 µg/mL (≈ 0.241 to 7.84 µM).

**Q.** For `COc1cccc(NNC(=O)c2cnccn2)c1` [Compound 9c], which MIC ([4]; read-out: MIC) is on record?
**A.** The MIC was 3.9 µg/mL (≈ 16 µM).

**Q.** What about the MIC [3] of the same compound?
**A.** The MIC was 0.06 to 7.8 µg/mL (≈ 0.246 to 31.9 µM).

**Q.** How did the “concentration active in prevention” value [2] turn out when `COc1ccc(NNC(=O)c2ccccn2)cc1` [Compound 2f] was run?
**A.** The value was 7.8 j·tg mL^−1.

**Q.** And the MIC [3]?
**A.** The MIC was 0.06 to 1.95 µg/mL (≈ 0.247 to 8.02 µM).

**Q.** With `O=C(NNc1ccc(F)cc1F)c1cnccn1` [Compound 9g] as the compound, how does the MIC [3] read?
**A.** The MIC was 0.06 to 7.8 µg/mL (≈ 0.24 to 31.2 µM).

**Q.** For `COc1ccc(NNC(=O)c2cnccn2)cc1` [Compound 9f], which MIC [3] is on record?
**A.** The MIC was 0.06 to 1.95 µg/mL (≈ 0.246 to 7.98 µM).

**Q.** Which results are given for `O=C(NNc1cc(F)ccc1F)c1ccccn1` [Compound 2h]?
**A.** prevention of biofilm formation [2]: not capable of preventing; MIC [3]: 0.06 to 1.95 µg/mL (≈ 0.241 to 7.82 µM)

**Q.** Which results are given for `O=C(NNc1ccc(F)cc1)c1ccccn1` [Compound 2d]?
**A.** concentration active in prevention of biofilm formation [2]: 1.96 j·tg mL^−1; MIC [3]: 0.06 to 7.8 µg/mL (≈ 0.259 to 33.7 µM)

**Q.** What does the source list for `O=C(NNc1cc(Cl)cc(Cl)c1)c1ccccn1` [Compound 2j]?
**A.** prevention of biofilm formation [2]: not capable of preventing; MIC ([4]; read-out: MIC): 3.9 µg/mL (≈ 13.8 µM); MIC [3]: 0.06 to 7.8 µg/mL (≈ 0.213 to 27.6 µM)
